Where two headings read alike, the source gives them in different places.
Legend:
Experiment in all cases: KiNativ assay
Format in all cases: binding
Details in all cases: H929 live cell
eEF2K = eEF2K (Homo sapiens (Human), UniProt O00418)
Method: (§1) Biochemical IC50s of the compounds of the present disclosure against various kinases were measured in a KiNativ assay. Compounds were screened in duplicate at 10 μM in H929 live cell. IC50 was measured via Mass spectroscopy (MS).

MAP2K7 = MAP2K7 (Homo sapiens (Human), UniProt O14733)
Method: as §1

PHKg2 = PHKg2 (Homo sapiens (Human), UniProt P15735)
Method: as §1

BARK1 = BARK1 (Homo sapiens (Human), UniProt P25098)
Method: as §1

PAN3 = PAN3 (Homo sapiens (Human), UniProt Q58A45)
Method: as §1

MARK1, MARK2 = tested on: MARK1, MARK2
Method: as §1

IRAK4 = IRAK4 (Homo sapiens (Human), UniProt Q9NWZ3)
Method: as §1

PIK3CG = PIK3CG (Homo sapiens (Human), UniProt P48736)
Method: as §1

MARK2, MARK3 = tested on: MARK2, MARK3
Method: as §1

CK1g2 = CK1g2 (Homo sapiens (Human), UniProt P78368)
Method: as §1

Wnk1, Wnk2, Wnk3 = tested on: Wnk1, Wnk2, Wnk3
Method: as §1

DGKH = DGKH (Homo sapiens (Human), UniProt Q86XP1)
Method: as §1

NEK9 = NEK9 (Homo sapiens (Human), UniProt Q8TD19)
Method: as §1

MARK3 = MARK3 (Homo sapiens (Human), UniProt P27448)
Method: as §1

IRAK1 = IRAK1 (Homo sapiens (Human), UniProt P51617)
Method: as §1

OSR1 = OSR1 (Homo sapiens (Human), UniProt O95747)
Method: as §1

MSK2 domain1 = MSK2 domain1 (Homo sapiens (Human), UniProt O75676)
Method: as §1

MST1, MST2 = tested on: MST1, MST2
Method: as §1

SMG1 = SMG1 (Homo sapiens (Human), UniProt Q96Q15)
Method: as §1

CLK2 = CLK2 (Homo sapiens (Human), UniProt P49760)
Method: as §1

[1] = tested on: ZC1/HGK, ZC2/TNIK, ZC3/MINK
Method: as §1

IKKe, TBK1 = tested on: IKKe, TBK1
Method: as §1

CK1g3 = CK1g3 (Homo sapiens (Human), UniProt Q9Y6M4)
Method: as §1

MLK3 = MLK3 (Homo sapiens (Human), UniProt Q16584)
Method: as §1

MAP3K1 = MAP3K1 (Homo sapiens (Human), UniProt Q13233)
Method: as §1

PKCz = PKCz (Homo sapiens (Human), UniProt Q05513)
Method: as §1

IKKb = IKKb (Homo sapiens (Human), UniProt O14920)
Method: as §1

JNK1, JNK2, JNK3 = tested on: JNK1, JNK2, JNK3
Method: as §1

MAP2K1 = MAP2K1 (Homo sapiens (Human), UniProt Q02750)
Method: as §1

PIP5K3 = PIP5K3 (Homo sapiens (Human), UniProt Q9Y2I7)
Method: as §1

GSK3B = GSK3B (Homo sapiens (Human), UniProt P49841)
Method: as §1

CHK1 = CHK1 (Homo sapiens (Human), UniProt O14757)
Method: as §1

MAP3K4 = MAP3K4 (Homo sapiens (Human), UniProt Q9Y6R4)
Method: as §1

PKD3 = PKD3 (Homo sapiens (Human), UniProt O94806)
Method: as §1

Chain of CK1g2 (P78368 whole entry): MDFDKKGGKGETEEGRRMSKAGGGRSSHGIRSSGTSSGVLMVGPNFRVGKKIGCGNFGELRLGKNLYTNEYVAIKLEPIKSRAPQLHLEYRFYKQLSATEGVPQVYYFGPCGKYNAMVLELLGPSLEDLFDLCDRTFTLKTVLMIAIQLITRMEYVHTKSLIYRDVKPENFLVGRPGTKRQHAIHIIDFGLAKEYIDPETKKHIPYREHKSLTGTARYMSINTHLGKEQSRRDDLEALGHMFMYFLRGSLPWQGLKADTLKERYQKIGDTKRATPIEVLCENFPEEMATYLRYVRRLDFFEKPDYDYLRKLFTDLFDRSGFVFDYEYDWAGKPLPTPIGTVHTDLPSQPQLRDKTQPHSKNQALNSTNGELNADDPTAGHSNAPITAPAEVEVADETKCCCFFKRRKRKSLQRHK
Chain of MAP2K7 (O14733 whole entry): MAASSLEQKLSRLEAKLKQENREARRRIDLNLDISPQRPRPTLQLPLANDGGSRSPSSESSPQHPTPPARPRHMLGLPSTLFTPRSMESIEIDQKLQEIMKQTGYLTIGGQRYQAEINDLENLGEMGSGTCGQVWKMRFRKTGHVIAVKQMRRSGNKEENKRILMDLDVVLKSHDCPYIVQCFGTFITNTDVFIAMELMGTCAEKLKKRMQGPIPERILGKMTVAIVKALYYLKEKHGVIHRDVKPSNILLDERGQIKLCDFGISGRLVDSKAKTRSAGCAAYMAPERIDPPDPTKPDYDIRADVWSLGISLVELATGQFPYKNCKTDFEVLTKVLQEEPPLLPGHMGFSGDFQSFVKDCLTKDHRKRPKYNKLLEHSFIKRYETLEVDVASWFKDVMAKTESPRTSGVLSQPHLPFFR
Chain of PAN3 (Q58A45 whole entry): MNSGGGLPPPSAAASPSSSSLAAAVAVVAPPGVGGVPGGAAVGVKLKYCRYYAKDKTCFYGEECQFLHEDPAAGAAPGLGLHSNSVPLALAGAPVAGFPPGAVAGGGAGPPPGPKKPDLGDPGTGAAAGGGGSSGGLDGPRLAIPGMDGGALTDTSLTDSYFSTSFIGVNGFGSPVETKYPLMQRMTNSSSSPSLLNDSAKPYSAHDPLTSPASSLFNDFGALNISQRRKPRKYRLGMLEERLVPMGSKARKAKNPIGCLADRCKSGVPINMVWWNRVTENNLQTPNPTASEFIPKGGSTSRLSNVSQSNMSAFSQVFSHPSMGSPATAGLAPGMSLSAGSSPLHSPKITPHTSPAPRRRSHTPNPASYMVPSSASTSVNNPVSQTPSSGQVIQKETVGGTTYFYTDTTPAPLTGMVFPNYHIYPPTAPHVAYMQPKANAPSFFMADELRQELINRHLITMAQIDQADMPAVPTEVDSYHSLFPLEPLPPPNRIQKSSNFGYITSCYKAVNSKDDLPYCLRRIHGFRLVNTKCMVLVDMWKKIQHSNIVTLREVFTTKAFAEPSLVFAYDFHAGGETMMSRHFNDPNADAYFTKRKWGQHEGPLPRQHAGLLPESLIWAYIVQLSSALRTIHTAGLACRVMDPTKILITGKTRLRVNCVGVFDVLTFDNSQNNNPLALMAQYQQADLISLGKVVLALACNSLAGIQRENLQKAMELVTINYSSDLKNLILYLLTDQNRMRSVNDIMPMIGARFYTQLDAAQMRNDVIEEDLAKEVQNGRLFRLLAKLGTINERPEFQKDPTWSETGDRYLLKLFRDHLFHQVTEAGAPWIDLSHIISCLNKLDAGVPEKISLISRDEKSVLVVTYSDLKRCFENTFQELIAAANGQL
Chain of PIK3CG (P48736 whole entry): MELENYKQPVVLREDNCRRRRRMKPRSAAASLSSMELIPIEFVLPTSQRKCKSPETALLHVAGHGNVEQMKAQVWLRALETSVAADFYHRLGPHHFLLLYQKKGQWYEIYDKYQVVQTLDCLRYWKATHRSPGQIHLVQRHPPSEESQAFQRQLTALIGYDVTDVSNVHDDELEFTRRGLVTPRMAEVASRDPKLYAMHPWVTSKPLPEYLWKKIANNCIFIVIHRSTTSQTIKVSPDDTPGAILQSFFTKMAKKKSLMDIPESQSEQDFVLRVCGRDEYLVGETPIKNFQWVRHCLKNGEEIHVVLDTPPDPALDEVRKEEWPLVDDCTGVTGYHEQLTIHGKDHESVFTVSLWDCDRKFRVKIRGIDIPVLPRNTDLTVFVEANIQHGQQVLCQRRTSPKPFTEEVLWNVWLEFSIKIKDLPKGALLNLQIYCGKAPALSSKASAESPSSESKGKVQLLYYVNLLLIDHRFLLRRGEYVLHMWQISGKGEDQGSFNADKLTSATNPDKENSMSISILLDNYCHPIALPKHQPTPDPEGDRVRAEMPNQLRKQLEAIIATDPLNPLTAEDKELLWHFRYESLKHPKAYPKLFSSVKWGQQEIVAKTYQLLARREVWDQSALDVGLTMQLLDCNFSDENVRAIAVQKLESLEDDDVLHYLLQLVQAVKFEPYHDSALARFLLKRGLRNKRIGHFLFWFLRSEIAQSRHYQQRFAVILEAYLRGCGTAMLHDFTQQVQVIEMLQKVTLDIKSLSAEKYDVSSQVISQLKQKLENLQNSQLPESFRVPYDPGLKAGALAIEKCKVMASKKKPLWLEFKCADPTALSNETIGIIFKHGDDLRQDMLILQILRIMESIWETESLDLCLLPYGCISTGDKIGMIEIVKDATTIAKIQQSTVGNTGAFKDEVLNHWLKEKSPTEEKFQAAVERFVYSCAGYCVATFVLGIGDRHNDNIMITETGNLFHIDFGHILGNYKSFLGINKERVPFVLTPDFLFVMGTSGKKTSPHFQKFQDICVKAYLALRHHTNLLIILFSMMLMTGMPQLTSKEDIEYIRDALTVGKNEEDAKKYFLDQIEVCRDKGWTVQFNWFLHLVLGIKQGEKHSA
Chain of CHK1 (O14757 whole entry): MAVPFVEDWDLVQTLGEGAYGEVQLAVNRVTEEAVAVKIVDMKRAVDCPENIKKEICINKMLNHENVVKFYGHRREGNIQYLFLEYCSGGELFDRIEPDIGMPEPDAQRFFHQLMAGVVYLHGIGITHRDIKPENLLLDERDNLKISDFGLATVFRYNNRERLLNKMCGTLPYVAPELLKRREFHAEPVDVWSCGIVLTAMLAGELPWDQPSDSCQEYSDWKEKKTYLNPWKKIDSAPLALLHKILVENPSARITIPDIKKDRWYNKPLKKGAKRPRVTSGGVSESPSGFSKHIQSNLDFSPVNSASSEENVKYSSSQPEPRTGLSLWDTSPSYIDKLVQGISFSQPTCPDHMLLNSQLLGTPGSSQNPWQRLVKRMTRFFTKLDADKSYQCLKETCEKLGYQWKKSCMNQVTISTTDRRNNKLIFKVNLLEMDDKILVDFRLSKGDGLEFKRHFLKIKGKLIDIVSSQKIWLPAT
Chain of DGKH (Q86XP1 whole entry): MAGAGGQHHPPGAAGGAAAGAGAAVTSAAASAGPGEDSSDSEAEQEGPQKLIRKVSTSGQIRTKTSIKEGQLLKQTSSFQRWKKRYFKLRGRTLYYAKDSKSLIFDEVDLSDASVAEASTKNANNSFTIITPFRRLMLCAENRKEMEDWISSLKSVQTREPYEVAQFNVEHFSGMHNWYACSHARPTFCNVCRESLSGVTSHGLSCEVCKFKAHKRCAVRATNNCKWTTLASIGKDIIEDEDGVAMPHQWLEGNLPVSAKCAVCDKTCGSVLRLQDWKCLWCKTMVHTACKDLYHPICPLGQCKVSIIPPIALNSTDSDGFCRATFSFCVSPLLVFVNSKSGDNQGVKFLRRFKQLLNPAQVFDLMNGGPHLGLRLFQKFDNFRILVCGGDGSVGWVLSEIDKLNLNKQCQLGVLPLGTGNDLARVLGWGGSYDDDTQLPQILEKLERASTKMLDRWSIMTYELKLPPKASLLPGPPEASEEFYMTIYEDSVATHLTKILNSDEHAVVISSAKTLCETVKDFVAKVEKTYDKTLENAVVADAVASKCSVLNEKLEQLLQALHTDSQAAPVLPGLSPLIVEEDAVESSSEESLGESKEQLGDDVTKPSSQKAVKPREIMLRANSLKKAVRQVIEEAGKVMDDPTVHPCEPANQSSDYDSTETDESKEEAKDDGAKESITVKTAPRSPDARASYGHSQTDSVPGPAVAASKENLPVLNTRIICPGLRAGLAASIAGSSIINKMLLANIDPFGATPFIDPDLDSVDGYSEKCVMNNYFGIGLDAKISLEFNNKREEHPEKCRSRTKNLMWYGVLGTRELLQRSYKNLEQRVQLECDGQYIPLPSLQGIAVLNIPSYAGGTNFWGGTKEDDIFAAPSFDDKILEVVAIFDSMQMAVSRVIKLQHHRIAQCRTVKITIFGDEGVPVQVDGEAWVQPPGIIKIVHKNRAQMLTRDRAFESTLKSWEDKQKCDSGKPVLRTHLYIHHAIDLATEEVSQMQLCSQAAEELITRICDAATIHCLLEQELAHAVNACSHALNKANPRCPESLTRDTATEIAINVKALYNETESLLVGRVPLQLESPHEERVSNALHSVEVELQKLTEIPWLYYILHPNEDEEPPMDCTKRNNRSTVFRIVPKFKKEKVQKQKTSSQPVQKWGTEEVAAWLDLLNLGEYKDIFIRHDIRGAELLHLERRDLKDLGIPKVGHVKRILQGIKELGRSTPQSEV
Chain of GSK3B (P49841 whole entry): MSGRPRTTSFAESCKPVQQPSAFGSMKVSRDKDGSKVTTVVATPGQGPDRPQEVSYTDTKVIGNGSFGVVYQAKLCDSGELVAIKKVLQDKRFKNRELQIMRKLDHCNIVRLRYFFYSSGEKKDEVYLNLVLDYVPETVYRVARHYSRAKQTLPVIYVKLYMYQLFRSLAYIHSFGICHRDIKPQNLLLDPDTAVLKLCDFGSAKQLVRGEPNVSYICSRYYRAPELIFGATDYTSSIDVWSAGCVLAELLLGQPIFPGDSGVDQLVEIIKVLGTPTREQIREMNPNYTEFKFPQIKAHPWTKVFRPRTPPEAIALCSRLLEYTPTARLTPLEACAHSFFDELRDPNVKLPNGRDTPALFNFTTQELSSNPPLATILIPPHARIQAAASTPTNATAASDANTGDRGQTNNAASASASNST

Nc1ncc(-c2cccc3ncsc23)cc1-c1ccc2c(c1)CCNC2=O [Compound I-13, 6-(2-amino-5-(benzo[d]thiazol-7-yl)pyridin-3-yl)-3,4-dihydroisoquinolin-1(2H)-one]
inhibition at 10 µM (eEF2K; read-out: % inhibition (range)): 0%
inhibition at 10 µM (eEF2K; read-out: inhibition (10 μM)): -45.5%
inhibition at 10 µM (MAP2K7; read-out: % inhibition (range)): 0%
inhibition at 10 µM (MAP2K7; read-out: inhibition (10 μM)): 15.1%
inhibition at 10 µM (PHKg2; read-out: % inhibition (range)): 0%
inhibition at 10 µM (PHKg2; read-out: inhibition (10 μM)): -27.5%
inhibition at 10 µM (BARK1; read-out: % inhibition (range)): 0%
inhibition at 10 µM (BARK1; read-out: inhibition (10 μM)): 21.8%
inhibition at 10 µM (PAN3; read-out: % inhibition (range)): 0%
inhibition at 10 µM (PAN3; read-out: inhibition (10 μM)): -4%
% inhibition (range) (MARK1, MARK2; 10 μM): 0.0%
inhibition (10 μM) (MARK1, MARK2): 2.9%
inhibition at 10 µM (IRAK4; read-out: % inhibition (range)): 0%
inhibition at 10 µM (IRAK4; read-out: inhibition (10 μM)): -6.4%
inhibition at 10 µM (PIK3CG; read-out: % inhibition (range)): 0%
inhibition at 10 µM (PIK3CG; read-out: inhibition (10 μM)): 12.4%
% inhibition (range) (MARK2, MARK3; 10 μM): 0.0%
inhibition (10 μM) (MARK2, MARK3): 14.8%
inhibition at 10 µM (CK1g2; read-out: % inhibition (range)): > 90%
inhibition at 10 µM (CK1g2; read-out: inhibition (10 μM)): > 90%
% inhibition (range) (Wnk1, Wnk2, Wnk3; 10 μM): 0.0%
inhibition (10 μM) (Wnk1, Wnk2, Wnk3): −69.3%
inhibition at 10 µM (DGKH; read-out: % inhibition (range)): 0%
inhibition at 10 µM (DGKH; read-out: inhibition (10 μM)): 25.7%
inhibition at 10 µM (NEK9; read-out: % inhibition (range)): 0%
inhibition at 10 µM (NEK9; read-out: inhibition (10 μM)): -10%
inhibition at 10 µM (MARK3; read-out: % inhibition (range)): 35 to 50%
inhibition at 10 µM (MARK3; read-out: inhibition (10 μM)): 46.2%
inhibition at 10 µM (IRAK1; read-out: % inhibition (range)): 0%
inhibition at 10 µM (IRAK1; read-out: inhibition (10 μM)): 28.5%
inhibition at 10 µM (OSR1; read-out: % inhibition (range)): 0%
inhibition at 10 µM (OSR1; read-out: inhibition (10 μM)): 1.4%
inhibition at 10 µM (MSK2 domain1; read-out: % inhibition (range)): 0%
inhibition at 10 µM (MSK2 domain1; read-out: inhibition (10 μM)): -6.1%
% inhibition (range) (MST1, MST2; 10 μM): 75-90%
inhibition (10 μM) (MST1, MST2): 89.4%
inhibition at 10 µM (SMG1; read-out: % inhibition (range)): 50 to 75%
inhibition at 10 µM (SMG1; read-out: inhibition (10 μM)): 61%
inhibition at 10 µM (CLK2; read-out: % inhibition (range)): 0%
inhibition at 10 µM (CLK2; read-out:): 19.1%
% inhibition (range) ([1]; 10 μM): >90%
inhibition (10 μM) [1]: 97.0%
% inhibition (range) (IKKe, TBK1; 10 μM): 0.0%
inhibition (10 μM) (IKKe, TBK1): −9.9%
inhibition at 10 µM (CK1g3; read-out: % inhibition (range)): > 90%
inhibition at 10 µM (CK1g3; read-out: inhibition (10 μM)): 90.4%
inhibition at 10 µM (MLK3; read-out: % inhibition (range)): 0%
inhibition at 10 µM (MLK3; read-out: inhibition (10 μM)): -3.9%
inhibition at 10 µM (MAP3K1; read-out: % inhibition (range)): > 90%
inhibition at 10 µM (MAP3K1; read-out: inhibition (10 μM)): 90.2%
inhibition at 10 µM (PKCz; read-out: % inhibition (range)): 0%
inhibition at 10 µM (PKCz; read-out: inhibition (10 μM)): 15.5%
inhibition at 10 µM (IKKb; read-out: % inhibition (range)): 0%
inhibition at 10 µM (IKKb; read-out: inhibition (10 μM)): -3.3%
% inhibition (range) (JNK1, JNK2, JNK3; 10 μM): 0.0%
inhibition (10 μM) (JNK1, JNK2, JNK3): 6.0%
inhibition at 10 µM (MAP2K1; read-out: % inhibition (range)): 0%
inhibition at 10 µM (MAP2K1; read-out: inhibition (10 μM)): -27.4%
inhibition at 10 µM (PIP5K3; read-out: % inhibition (range)): > 90%
inhibition at 10 µM (PIP5K3; read-out: inhibition (10 μM)): 92.5%
inhibition at 10 µM (GSK3B; read-out: % inhibition (range)): 75 to 90%
inhibition at 10 µM (GSK3B; read-out: inhibition (10 μM)): 88.4%
inhibition at 10 µM (CHK1; read-out: % inhibition (range)): 0%
inhibition at 10 µM (CHK1; read-out: inhibition (10 μM)): -8.9%
inhibition at 10 µM (MAP3K4; read-out: % inhibition (range)): 0%
inhibition at 10 µM (MAP3K4; read-out: inhibition (10 μM)): 3%
inhibition at 10 µM (PKD3; read-out: % inhibition (range)): 50 to 75%
inhibition at 10 µM (PKD3; read-out: inhibition (10 μM)): 69.4%
